PMC4579270, “Identification and Characterization of an Irreversible Inhibitor of CDK2” (Chemistry & Biology, 2015)
Read-outs that look alike come from different tables or passages of the source.

Experiments:
Experiment in all cases: Dundee kinase screen re-test (standard format and 4 hour pre-incubation)
Format in all cases: biochemical
Lck = Lck (Homo sapiens, UniProt P06239)
Method: (§1) Prior to determining its cellular activity, we carried out a screen to assess its selectivity against a panel of 131 protein kinases under conditions that would not distinguish between a reversible or irreversible mode of action. […] These 13 kinases and 29 additional kinases, selected for their known sensitivity to other inhibitors within the purine series, were then tested in a modified screening format in which the assay was repeated following a 4-hr pre-incubation (Table S3B). […] However, conformational flexibility around the active site may promote such an interaction with a residue from another part of the structure ([Martin et al., 2012]).
(§2) Table S3, Related to Figure 4. NCL-0006300 protein kinase selectivity. (A) NU6300 was tested at a single concentration of 1µM against 131 protein kinases present in a Dundee protein kinase screen (Bain et al., 2007). Values given are % activity remaining and are the average of duplicate measurements: 0-25% (red), 26-50% (yellow), 51-80% (black) and above 81% (green). The kinase domain sequences (as defined by UniProt) of […]
(§3) have a lysine residue at a position close to CDK2 Lys88 or Lys89. However, in the structure of tyrosine-protein kinase BTK (PDB ID: 3GEN) the residue equivalent to CDK2 Asp86 is Cys481 and therefore there is the potential for a covalent adduct to be formed through this side chain. Ephrin type-B receptor 3 (UniProt entry P54753) also encodes a cysteine residue (Cys717) that by sequence alignment would be predicted to be close to the CDK2 lysine pair. (B) Selected kinases were re-tested in the Dundee kinase screen against NU6300 at a single concentration of 0.5 µM both in the standard assay format and following a 4 hour pre-incubation in the presence of NU6300. Kinases which have very low activity after the 4 hour incubation so that results might not be wholly reliable are boxed in salmon. Kinases where the activity after a 4 hour pre-incubation is < 50% that in the standard assay format are highlighted in red.

MST2 = biological target: T1, MST2 (Homo sapiens, UniProt Q13188); details: for remaining activity at 0.5 µM: MST2, 0.5µM
T1 sequence (Q13188 1-491): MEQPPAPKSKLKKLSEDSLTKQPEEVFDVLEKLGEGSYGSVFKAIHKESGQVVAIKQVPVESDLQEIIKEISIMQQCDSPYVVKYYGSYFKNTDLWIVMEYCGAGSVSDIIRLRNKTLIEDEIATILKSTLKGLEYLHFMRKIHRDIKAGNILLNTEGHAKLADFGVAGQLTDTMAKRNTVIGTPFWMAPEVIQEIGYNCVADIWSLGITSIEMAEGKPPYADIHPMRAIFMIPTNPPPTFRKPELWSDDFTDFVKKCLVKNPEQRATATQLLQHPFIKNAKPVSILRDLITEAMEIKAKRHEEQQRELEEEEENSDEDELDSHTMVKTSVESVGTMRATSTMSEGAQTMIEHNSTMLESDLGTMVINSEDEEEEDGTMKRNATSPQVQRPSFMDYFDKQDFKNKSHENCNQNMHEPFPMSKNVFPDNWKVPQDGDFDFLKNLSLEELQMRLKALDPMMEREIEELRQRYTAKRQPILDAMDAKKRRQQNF
Method: as §1, §2, §3

PRK2 = PRK2 (Homo sapiens, UniProt Q16513); details: PRK2, 0.5µM
Method: as §1, §2, §3

NUAK1 = biological target: T2, NUAK1 (Homo sapiens, UniProt O60285); details: NUAK1, 0.5µM
T2 sequence (O60285 1-661): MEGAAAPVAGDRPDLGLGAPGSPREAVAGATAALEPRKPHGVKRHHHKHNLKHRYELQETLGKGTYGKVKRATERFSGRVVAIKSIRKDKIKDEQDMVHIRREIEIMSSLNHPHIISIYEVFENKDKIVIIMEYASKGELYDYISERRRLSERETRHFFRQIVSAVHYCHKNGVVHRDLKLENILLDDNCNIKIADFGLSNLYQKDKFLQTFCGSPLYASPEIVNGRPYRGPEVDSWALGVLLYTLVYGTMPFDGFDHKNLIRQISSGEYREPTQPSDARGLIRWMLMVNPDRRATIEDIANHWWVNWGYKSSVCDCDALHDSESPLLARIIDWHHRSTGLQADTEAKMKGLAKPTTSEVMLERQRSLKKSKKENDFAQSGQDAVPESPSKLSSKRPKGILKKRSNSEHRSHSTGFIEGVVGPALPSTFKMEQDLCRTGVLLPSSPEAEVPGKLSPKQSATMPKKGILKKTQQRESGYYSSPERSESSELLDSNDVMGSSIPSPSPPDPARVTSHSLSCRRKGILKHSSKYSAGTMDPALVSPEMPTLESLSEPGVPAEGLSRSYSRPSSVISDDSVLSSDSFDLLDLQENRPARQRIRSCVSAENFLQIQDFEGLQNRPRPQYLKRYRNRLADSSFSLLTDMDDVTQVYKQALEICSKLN
Method: as §1, §2, §3

VEG-FR1 = VEG-FR1 (Homo sapiens, UniProt P17948); details: VEG-FR1, 0.5µM
Method: as §1, §2, §3

CHK2 = CHK2 (Homo sapiens, UniProt O96017); details: CHK2, 0.5µM
Method: as §1, §2, §3

Aurora B = Aurora B (Homo sapiens, UniProt Q96GD4)
Method: as §1, §2, §3

IRAK1 = IRAK1 (Homo sapiens, UniProt P51617); details: IRAK1, 0.5µM
Method: as §1, §2, §3

[1] = 4hr RT preincubation, read-out: %Remaining activity at 0.5µM NU6300 - 4hr RT preincubation
[2] = usual format, read-out: %Remaining activity at 0.5µM NU6300 - Usual assay format

Sequence of Lck (P06239 whole entry): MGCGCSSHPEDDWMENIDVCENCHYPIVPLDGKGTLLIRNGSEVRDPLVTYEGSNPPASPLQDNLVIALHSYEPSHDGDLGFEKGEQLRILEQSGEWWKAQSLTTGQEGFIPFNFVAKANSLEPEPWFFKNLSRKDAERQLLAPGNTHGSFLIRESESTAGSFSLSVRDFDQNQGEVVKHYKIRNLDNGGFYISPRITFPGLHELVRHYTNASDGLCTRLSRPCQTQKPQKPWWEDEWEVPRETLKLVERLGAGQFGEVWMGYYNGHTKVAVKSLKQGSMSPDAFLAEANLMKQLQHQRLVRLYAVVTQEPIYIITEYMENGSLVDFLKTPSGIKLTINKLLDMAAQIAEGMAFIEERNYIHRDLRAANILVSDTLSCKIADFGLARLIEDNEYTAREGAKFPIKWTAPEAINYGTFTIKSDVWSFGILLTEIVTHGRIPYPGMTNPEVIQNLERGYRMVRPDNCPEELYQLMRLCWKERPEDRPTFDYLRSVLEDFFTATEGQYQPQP
Sequence of VEG-FR1 (P17948 27-1338): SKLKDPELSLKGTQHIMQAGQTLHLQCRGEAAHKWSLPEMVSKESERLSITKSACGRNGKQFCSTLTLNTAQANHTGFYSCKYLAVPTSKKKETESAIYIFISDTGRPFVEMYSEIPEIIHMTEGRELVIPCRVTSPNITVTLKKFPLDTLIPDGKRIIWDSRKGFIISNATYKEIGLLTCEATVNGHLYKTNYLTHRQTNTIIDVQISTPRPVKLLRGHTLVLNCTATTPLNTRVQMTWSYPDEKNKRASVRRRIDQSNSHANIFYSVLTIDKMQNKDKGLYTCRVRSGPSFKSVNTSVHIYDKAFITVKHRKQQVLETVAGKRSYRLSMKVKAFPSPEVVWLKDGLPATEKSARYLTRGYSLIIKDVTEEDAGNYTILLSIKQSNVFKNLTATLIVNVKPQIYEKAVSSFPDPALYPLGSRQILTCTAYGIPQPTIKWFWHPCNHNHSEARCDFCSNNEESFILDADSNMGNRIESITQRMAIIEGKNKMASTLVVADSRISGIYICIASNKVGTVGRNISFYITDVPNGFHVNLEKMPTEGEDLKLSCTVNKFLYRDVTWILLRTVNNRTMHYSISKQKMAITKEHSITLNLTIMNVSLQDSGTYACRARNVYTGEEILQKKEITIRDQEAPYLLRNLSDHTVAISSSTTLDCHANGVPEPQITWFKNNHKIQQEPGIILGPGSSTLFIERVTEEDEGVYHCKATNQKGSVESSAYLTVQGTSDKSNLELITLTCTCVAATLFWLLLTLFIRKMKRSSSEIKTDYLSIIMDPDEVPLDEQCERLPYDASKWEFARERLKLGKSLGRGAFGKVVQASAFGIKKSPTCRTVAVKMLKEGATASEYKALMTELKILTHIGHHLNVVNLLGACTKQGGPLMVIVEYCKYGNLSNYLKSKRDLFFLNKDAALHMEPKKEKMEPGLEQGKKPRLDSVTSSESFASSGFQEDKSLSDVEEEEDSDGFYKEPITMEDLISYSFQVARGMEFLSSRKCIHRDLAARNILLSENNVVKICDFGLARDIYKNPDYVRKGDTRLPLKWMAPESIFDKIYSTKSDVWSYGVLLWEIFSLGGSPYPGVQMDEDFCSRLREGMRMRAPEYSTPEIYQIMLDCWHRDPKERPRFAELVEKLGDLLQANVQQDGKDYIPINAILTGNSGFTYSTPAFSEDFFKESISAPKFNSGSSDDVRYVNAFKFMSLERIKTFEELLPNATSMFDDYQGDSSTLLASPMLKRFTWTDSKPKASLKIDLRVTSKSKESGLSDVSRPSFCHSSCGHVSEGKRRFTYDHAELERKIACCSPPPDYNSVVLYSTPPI
Sequence of PRK2 (Q16513 whole entry): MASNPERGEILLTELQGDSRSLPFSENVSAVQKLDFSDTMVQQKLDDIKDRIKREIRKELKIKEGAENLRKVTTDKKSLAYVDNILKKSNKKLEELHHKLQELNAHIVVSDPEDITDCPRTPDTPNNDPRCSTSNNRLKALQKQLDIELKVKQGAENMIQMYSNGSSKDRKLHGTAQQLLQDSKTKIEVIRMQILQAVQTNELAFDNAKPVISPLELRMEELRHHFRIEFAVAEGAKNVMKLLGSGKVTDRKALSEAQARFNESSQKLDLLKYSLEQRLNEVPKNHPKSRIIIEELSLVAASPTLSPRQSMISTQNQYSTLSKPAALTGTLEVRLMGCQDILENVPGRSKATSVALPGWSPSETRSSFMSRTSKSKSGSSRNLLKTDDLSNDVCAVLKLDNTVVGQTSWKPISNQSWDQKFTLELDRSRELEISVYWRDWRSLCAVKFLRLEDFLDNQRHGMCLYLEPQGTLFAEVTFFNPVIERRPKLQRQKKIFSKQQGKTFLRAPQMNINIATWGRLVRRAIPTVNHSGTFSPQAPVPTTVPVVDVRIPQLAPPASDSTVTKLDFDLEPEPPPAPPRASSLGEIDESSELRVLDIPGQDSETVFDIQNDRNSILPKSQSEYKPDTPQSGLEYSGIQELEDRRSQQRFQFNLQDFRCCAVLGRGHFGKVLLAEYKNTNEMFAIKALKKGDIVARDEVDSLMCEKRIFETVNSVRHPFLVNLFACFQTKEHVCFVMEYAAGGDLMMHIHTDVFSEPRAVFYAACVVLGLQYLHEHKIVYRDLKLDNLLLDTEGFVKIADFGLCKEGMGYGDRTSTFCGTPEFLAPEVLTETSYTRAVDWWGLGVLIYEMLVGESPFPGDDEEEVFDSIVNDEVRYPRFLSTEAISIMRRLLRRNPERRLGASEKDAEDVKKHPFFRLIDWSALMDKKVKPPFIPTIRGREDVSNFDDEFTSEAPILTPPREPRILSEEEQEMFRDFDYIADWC
Sequence of Aurora B (Q96GD4 whole entry): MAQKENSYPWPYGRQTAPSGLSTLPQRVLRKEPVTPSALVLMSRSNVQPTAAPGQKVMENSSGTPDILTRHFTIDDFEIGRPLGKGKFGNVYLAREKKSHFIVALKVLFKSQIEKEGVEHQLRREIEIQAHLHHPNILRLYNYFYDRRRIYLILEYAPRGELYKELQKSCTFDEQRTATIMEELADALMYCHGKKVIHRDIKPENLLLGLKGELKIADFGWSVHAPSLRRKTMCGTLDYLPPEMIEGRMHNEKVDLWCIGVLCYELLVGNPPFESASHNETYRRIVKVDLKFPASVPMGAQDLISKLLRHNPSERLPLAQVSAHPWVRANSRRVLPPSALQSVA
Sequence of CHK2 (O96017 whole entry): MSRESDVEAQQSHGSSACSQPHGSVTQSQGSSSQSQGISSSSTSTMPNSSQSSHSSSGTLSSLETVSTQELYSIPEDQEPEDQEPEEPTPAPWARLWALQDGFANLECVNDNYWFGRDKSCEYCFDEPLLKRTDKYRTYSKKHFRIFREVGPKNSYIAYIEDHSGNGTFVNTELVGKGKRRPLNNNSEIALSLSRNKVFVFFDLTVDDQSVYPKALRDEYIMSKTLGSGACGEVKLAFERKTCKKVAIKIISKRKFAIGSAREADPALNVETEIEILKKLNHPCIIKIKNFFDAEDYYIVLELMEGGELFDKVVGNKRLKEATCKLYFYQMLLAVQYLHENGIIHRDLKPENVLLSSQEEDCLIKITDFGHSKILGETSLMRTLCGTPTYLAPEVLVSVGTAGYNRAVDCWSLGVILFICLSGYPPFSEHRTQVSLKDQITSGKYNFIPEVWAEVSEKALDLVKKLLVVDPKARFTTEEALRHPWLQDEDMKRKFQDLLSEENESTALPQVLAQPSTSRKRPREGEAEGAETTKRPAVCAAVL
Sequence of IRAK1 (P51617 whole entry): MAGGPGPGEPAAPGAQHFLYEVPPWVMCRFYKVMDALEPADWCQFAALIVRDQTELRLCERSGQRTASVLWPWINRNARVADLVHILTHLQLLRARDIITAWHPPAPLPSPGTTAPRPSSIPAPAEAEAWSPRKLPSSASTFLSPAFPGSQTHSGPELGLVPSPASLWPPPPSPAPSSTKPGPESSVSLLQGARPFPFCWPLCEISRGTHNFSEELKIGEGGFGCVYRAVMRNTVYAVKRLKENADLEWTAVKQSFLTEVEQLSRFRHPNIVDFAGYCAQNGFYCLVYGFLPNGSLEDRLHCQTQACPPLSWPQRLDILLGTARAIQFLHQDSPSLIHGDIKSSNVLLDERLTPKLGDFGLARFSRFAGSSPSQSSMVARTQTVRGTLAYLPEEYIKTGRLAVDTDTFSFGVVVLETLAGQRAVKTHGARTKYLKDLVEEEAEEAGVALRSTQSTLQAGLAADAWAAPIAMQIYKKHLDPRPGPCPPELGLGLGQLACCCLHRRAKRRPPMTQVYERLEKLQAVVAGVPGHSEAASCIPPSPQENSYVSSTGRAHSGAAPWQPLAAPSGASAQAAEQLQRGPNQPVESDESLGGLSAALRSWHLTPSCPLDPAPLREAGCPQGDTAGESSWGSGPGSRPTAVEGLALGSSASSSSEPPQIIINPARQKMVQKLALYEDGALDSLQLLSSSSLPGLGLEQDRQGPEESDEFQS

Compound: C=CS(=O)(=O)c1ccc(Nc2nc(OCC3CCCCC3)c3nc[nH]c3n2)cc1 [NU6300, 6-(cyclohexylmethoxy)-N-(4-(vinylsulfonyl)phenyl)-9H-purin-2-amine]
- remaining activity at 0.5 µM (Lck; [1]): 60%
- remaining activity at 0.5 µM (Lck; [2]): 67%
- remaining activity at 0.5 µM (MST2; [1]): 11%
- remaining activity at 0.5 µM (MST2; [2]): 38%
- additional loss of activity after pre-incubation (MST2; Mst2, 4-hr pre-incubation vs usual format, 0.5 µM): > 50%
- remaining activity at 0.5 µM (PRK2; [1]): 84%
- remaining activity at 0.5 µM (PRK2; [2]): 65%
- remaining activity at 0.5 µM (NUAK1; [1]): 18%
- remaining activity at 0.5 µM (NUAK1; [2]): 12%
- remaining activity at 0.5 µM (VEG-FR1; [1]): 51%
- remaining activity at 0.5 µM (VEG-FR1; [2]): 43%
- remaining activity at 0.5 µM (CHK2; [1]): 120%
- remaining activity at 0.5 µM (CHK2; [2]): 55%
- remaining activity at 0.5 µM (Aurora B; [1]): 87%
- remaining activity at 0.5 µM (Aurora B; [2]): 43%
- remaining activity at 0.5 µM (IRAK1; [1]): 38%
- remaining activity at 0.5 µM (IRAK1; [2]): 64%
